Assay results taken from patent US5352659A, “Endothelin analogs and uses thereof” (Takeda Chemical Industries, priority 1991, dated 1994).
Read-outs that look alike come from different tables or passages of the source. Bridge positions count the residues as written; N and C are the ends. Square brackets hold non-standard residues; d marks the D form. Peptide text beside a SMILES is read from it. Cha = N[C@@H](CC1CCCCC1)C(=O)O; Nle = CCCC[C@H](N)C(=O)O

Columns and labels:
porcine coronary artery = test: Constrictor activity on porcine coronary smooth muscles; details: for Maximum constriction (% 60 mM KCl): porcine coronary artery strips, normalized to 60 mM KCl response; for Constrictor activity (specific activity): relative to ET-1 = 100
Procedure: (§1) Spiral strips 2 mm×15 mm prepared from the coronary right ramus circumflexus from which the adventitial connective tissues and the endothelial cells were removed were set to 4 ml organ baths. The tension of each strip was detected by a force displacement transducer UL-10GR (Minebea), and recorded by a polygraph (NEC Sanei). The organ baths were maintained at 37° C., and filled with a Krebs-Henseleit solution (composition: 118 mM NaCl, 4.7 mM KCl, 2.5 mM CaCl2, 1.2 mM KH2 PO4, 25.0 mM NaHCO3, 1.2 mM MgSO4, 10.0 mM glucose) gassed with 95% O2 and 5% CO2.
(§2) A tension of 1.25 to 1.5 g was applied to each of the strips, followed by equilibration for 1.5 hours. 60 mM KCl was repeatedly applied thereto at intervals of 30 minutes until the constriction response became constant. After additional equilibration for 1.5 hours, a sample for assay was given thereto. The constriction of the strips was normalized by the constriction response of the individual strips to 60 mM KCl and statistically processed.
(2) As to the antagonistic property of the peptides of the present invention to endothelin, the affinity for an endothelin receptor and the constrictor activity on porcine coronary smooth muscles (according to the method described in (1) described above) were assayed. The affinity for the receptor was assayed by the following method.

endothelin receptor = test: Assay of affinity for receptor (inhibition of 125I-ET-1 binding to porcine myocardial membrane fraction); details: for Receptor binding activity (specific activity): relative to ET-1 = 100
Procedure: Assay of Affinity for Receptor
A membrane fraction prepared from the porcine heart was diluted to 0.15 mg/ml by using a buffer solution for assay, and 100 μl of the resulting suspension of the membrane fraction was poured into each assay tube to use for assay. To this suspension of the membrane fraction was added 2 μl of 5 nM ^125 I labeled endothelin-1 solution. Further, 3 μl of a test peptide solution was added thereto, followed by incubation at a temperature of 25° C. for 1 hour. Then, the resulting suspension was diluted with 900 μl of the buffer solution for assay cooled with ice, and thereafter separated into a supernatant and a precipitate by centrifugation at 12,000×g for 10 minutes. Cell membranes and an endothelin receptor embedded therein were contained in the precipitate, and radioactive iodine-labeled endothelin combined with the receptor was also recovered in the precipitate. Accordingly, the amount of radioactive iodine-labeled endothelin combined with the endothelin receptor was determined by measuring the amount of radioactive iodine contained in the precipitate with a gamma-ray counter.

[1] = system: porcine coronary smooth muscles
Procedure: (1) Assay of Constrictor Suppressing Activity on Porcine Coronary Smooth Muscles
as §1, §2
pA2 is a negative logarithm value of a molar concentration of a competitive antagonist necessary for shifting in parallel a dose response curve for an active drug (for example, ET-1) alone to the high dose side by a factor of 2.

[2] = against cumulative endothelin-1, porcine coronary smooth muscles

| Compound | Maximum constriction (% 60 mM KCl) (porcine coronary artery) | Constrictor activity (specific activity) (porcine coronary artery; porcine coronary artery) | Receptor binding activity (specific activity) (endothelin receptor) | Relative potency [1] | pA2 [1] | pA2 [1, 2] | EC50 (porcine coronary artery; porcine coronary artery, read-out: EC50 (% KCl), concentration which induces 50% of the constriction of the porcine coronary artery due to 60 mM KCl) | IC50 (endothelin receptor; read-out: IC50, concentration required to prevent 50% of the binding of I125-ET1 to the porcine myocardial membrane fraction) |
| --- | --- | --- | --- | --- | --- | --- | --- | --- |
| CC[C@H](C)[C@H](NC(=O)[C@H](CC(C)C)NC(=O)[C@@H](NC(=O)[C@H](CC(C)C)NC(=O)[C@H](Cc1c[nH]cn1)NC(=O)[C@@H]1CSSC[C@H](N)C(=O)N[C@@H](CO)C(=O)N[C@H]2CSSC[C@H](NC(=O)[C@H](CCC(=O)O)NC(=O)[C@H](CCCCN)NC(=O)[C@H](CC(=O)O)NC(=O)[C@H](CCSC)NC(=O)[C@H](C)NC(=O)[C@H](CO)NC(=O)[C@H](CO)NC2=O)C(=O)N[C@@H](C(C)C)C(=O)N[C@@H](Cc2ccc(O)cc2)C(=O)N[C@@H](Cc2ccccc2)C(=O)N1)[C@@H](C)O)C(=O)N[C@@H](Cc1c[nH]c2ccccc12)C(=O)O [Example 15, [Ala^6, Thr^18, Leu^19]-ET-1] (H-CSCSSAMDKECVYFCHLTLIW-OH; disulfide 1-15, 3-11) | 7 % 60 mM KCl | < 0.1 | 11 | 6 | 6.5 |  |  |  |
| CC[C@H](C)[C@H](NC(=O)[C@H](CC(C)C)NC(=O)[C@@H](NC(=O)[C@H](CC(C)C)NC(=O)[C@H](Cc1c[nH]cn1)NC(=O)[C@@H]1CSSC[C@H](N)C(=O)N[C@@H](CO)C(=O)N[C@H]2CSSC[C@H](NC(=O)[C@H](CCC(=O)O)NC(=O)[C@H](CCCCN)NC(=O)[C@H](CC(=O)O)NC(=O)[C@H](CCSC)NC(=O)[C@H](CC(C)C)NC(=O)[C@H](CO)NC(=O)[C@H](CO)NC2=O)C(=O)N[C@@H](C(C)C)C(=O)N[C@@H](Cc2ccc(O)cc2)C(=O)N[C@@H](Cc2ccccc2)C(=O)N1)[C@@H](C)O)C(=O)N[C@@H](Cc1c[nH]c2ccccc12)C(=O)O [Example 1, [Thr^18, Leu^19]-ET-1] (H-CSCSSLMDKECVYFCHLTLIW-OH; disulfide 1-15, 3-11) | 4 % 60 mM KCl | < 0.1 | 40 |  |  | 7.7 |  |  |
| CC[C@H](C)[C@H](NC(=O)[C@H](CC(C)C)NC(=O)[C@@H](NC(=O)[C@H](CC(C)C)NC(=O)[C@H](Cc1c[nH]cn1)NC(=O)[C@@H]1CSSC[C@H](N)C(=O)N[C@@H](CO)C(=O)N[C@H]2CSSC[C@H](NC(=O)[C@H](CCC(=O)O)NC(=O)[C@H](C)NC(=O)[C@H](CC(=O)O)NC(=O)[C@H](CCSC)NC(=O)[C@H](CC(C)C)NC(=O)[C@H](CO)NC(=O)[C@H](CO)NC2=O)C(=O)N[C@@H](C(C)C)C(=O)N[C@@H](Cc2ccc(O)cc2)C(=O)N[C@@H](Cc2ccccc2)C(=O)N1)[C@@H](C)O)C(=O)N[C@@H](Cc1c[nH]c2ccccc12)C(=O)O [Example 10, [Ala^9, Thr^18, Leu^19]-ET-1] (H-CSCSSLMDAECVYFCHLTLIW-OH; disulfide 1-15, 3-11) | 4 % 60 mM KCl | < 0.1 | 16 | 1.6 | 5.9 |  |  |  |
| CCCC[C@@H]1NC(=O)[C@H](CC(C)C)NC(=O)[C@H](CO)NC(=O)[C@H](CO)NC(=O)[C@@H]2CSSC[C@H](NC(=O)[C@H](CCC(=O)O)NC(=O)[C@H](CCCCN)NC(=O)[C@H](CC(=O)O)NC1=O)C(=O)N[C@@H](C(C)C)C(=O)N[C@@H](Cc1ccc(O)cc1)C(=O)N[C@@H](Cc1ccccc1)C(=O)N[C@H](C(=O)N[C@@H](Cc1c[nH]cn1)C(=O)N[C@@H](CC(C)C)C(=O)N[C@H](C(=O)N[C@@H](CC(C)C)C(=O)N[C@H](C(=O)N[C@@H](Cc1c[nH]c3ccccc13)C(=O)O)[C@@H](C)CC)[C@@H](C)O)CSSC[C@H](N)C(=O)N[C@@H](CO)C(=O)N2 [Example 17, [Nle^7, Thr^18, Leu^19]-ET-1] (H-CSCSSL[Nle]DKECVYFCHLTLIW-OH; disulfide 1-15, 3-11) | 9 % 60 mM KCl | < 0.1 | 27 |  |  |  |  |  |
| CC[C@H](C)[C@H](NC(=O)[C@H](CC1CCCCC1)NC(=O)[C@@H](NC(=O)[C@H](CC(C)C)NC(=O)[C@H](Cc1c[nH]cn1)NC(=O)[C@@H]1CSSC[C@H](N)C(=O)N[C@@H](CO)C(=O)N[C@H]2CSSC[C@H](NC(=O)[C@H](CCC(=O)O)NC(=O)[C@H](CCCCN)NC(=O)[C@H](CC(=O)O)NC(=O)[C@H](CCSC)NC(=O)[C@H](CC(C)C)NC(=O)[C@H](CO)NC(=O)[C@H](CO)NC2=O)C(=O)N[C@@H](C(C)C)C(=O)N[C@@H](Cc2ccc(O)cc2)C(=O)N[C@@H](Cc2ccccc2)C(=O)N1)[C@@H](C)O)C(=O)N[C@@H](Cc1c[nH]c2ccccc12)C(=O)O [Example 2, [Thr^18, Cha^19]-ET-1] (H-CSCSSLMDKECVYFCHLT[Cha]IW-OH; disulfide 1-15, 3-11) | 2 % 60 mM KCl | < 0.1 | 23 |  |  | 7.7 |  |  |
| CC[C@H](C)[C@H](NC(=O)[C@H](CC(N)=O)NC(=O)[C@@H](NC(=O)[C@H](CC(C)C)NC(=O)[C@H](Cc1c[nH]cn1)NC(=O)[C@@H]1CSSC[C@H](N)C(=O)N[C@@H](CO)C(=O)N[C@H]2CSSC[C@H](NC(=O)[C@H](CCC(=O)O)NC(=O)[C@H](CCCCN)NC(=O)[C@H](CC(=O)O)NC(=O)[C@H](CCSC)NC(=O)[C@H](CC(C)C)NC(=O)[C@H](CO)NC(=O)[C@H](CO)NC2=O)C(=O)N[C@@H](C(C)C)C(=O)N[C@@H](Cc2ccc(O)cc2)C(=O)N[C@@H](Cc2ccccc2)C(=O)N1)[C@@H](C)O)C(=O)N[C@@H](Cc1c[nH]c2ccccc12)C(=O)O [Example 5, [Thr^18, Asn^19]-ET-1] (H-CSCSSLMDKECVYFCHLTNIW-OH; disulfide 1-15, 3-11) | 9 % 60 mM KCl | < 0.1 | 1.6 |  |  |  |  |  |
| CC[C@H](C)[C@H](NC(=O)[C@H](CC(C)C)NC(=O)[C@H](CC(N)=O)NC(=O)[C@H](CC(C)C)NC(=O)[C@H](Cc1c[nH]cn1)NC(=O)[C@@H]1CSSC[C@H](N)C(=O)N[C@@H](CO)C(=O)N[C@H]2CSSC[C@H](NC(=O)[C@H](CCC(=O)O)NC(=O)[C@H](CCCCN)NC(=O)[C@H](CC(=O)O)NC(=O)[C@H](CCSC)NC(=O)[C@H](CC(C)C)NC(=O)[C@H](CO)NC(=O)[C@H](CO)NC2=O)C(=O)N[C@@H](C(C)C)C(=O)N[C@@H](Cc2ccc(O)cc2)C(=O)N[C@@H](Cc2ccccc2)C(=O)N1)C(=O)N[C@@H](Cc1c[nH]c2ccccc12)C(=O)O [Example 7, [Asn^18, Leu^19]-ET-1] (H-CSCSSLMDKECVYFCHLNLIW-OH; disulfide 1-15, 3-11) | 4 % 60 mM KCl | < 0.1 | 12 |  |  |  |  |  |
| CC[C@H](C)[C@H](NC(=O)[C@H](CC(=O)O)NC(=O)[C@H](CC(C)C)NC(=O)[C@H](Cc1c[nH]cn1)NC(=O)[C@@H]1CSSC[C@H](N)C(=O)N[C@@H](CO)C(=O)N[C@H]2CSSC[C@H](NC(=O)[C@H](CCC(=O)O)NC(=O)[C@H](CCCCN)NC(=O)[C@H](CC(=O)O)NC(=O)[C@H](CCSC)NC(=O)[C@H](CC(C)C)NC(=O)[C@H](CO)NC(=O)[C@H](CO)NC2=O)C(=O)N[C@@H](C(C)C)C(=O)N[C@@H](Cc2ccc(O)cc2)C(=O)N[C@@H](Cc2ccccc2)C(=O)N1)C(=O)N[C@H](C(=O)N[C@@H](Cc1c[nH]c2ccccc12)C(=O)O)[C@@H](C)CC [ET-1, endothelin-1, reference compound] | 120 % 60 mM KCl | […] | […] |  |  |  | 1.6 nM | […] |
| CC[C@H](C)[C@H](NC(=O)[C@H](CC(C)C)NC(=O)[C@@H](NC(=O)[C@H](CC(C)C)NC(=O)[C@H](Cc1c[nH]cn1)NC(=O)[C@@H]1CSSC[C@H](N)C(=O)N[C@@H]([C@@H](C)O)C(=O)N[C@H]2CSSC[C@H](NC(=O)[C@H](CCC(=O)O)NC(=O)[C@H](CCCCN)NC(=O)[C@H](CC(=O)O)NC(=O)[C@H](CCCCN)NC(=O)[C@H](Cc3ccc(O)cc3)NC(=O)[C@H]([C@@H](C)O)NC(=O)[C@H](Cc3ccccc3)NC2=O)C(=O)N[C@@H](C(C)C)C(=O)N[C@@H](Cc2ccc(O)cc2)C(=O)N[C@@H](Cc2ccc(O)cc2)C(=O)N1)[C@@H](C)O)C(=O)N[C@@H](Cc1c[nH]c2ccccc12)C(=O)O [Example 9, [Thr^18, Leu^19]-ET-3] (H-CTCFTYKDKECVYYCHLTLIW-OH; disulfide 1-15, 3-11) | 12 % 60 mM KCl | < 0.1 | 4.0 |  |  |  |  |  |
